Literature values, collected in paper PMC5014530 (Molecular Therapy. Nucleic Acids, 2016).

Test system: mitochondrial membranes

**Q.** With (KLAKLA)2 as the substance, how does the “Mechanism of apoptosis induction” value read?
**A.** Its value is “disrupts mitochondrial membranes to cause apoptosis”.
